Legend:
M1PYK = target: T1, M1PYK (Homo sapiens, UniProt P14618); assay: PYK activity modulator screen (LDH-coupled enzymatic activity assay); assay type: biochemical; settings: 2.5 mM ligand; sub-saturating PEP and ADP; pH 7.4, 37°C; relative to no ligand
T1 construct: made in house; host or cells: Escherichia coli BL21(DE3), pET28a
Experimental: For the identification of PYK activity modulators, enzymatic activity assays were performed as follows. A 1.9 µl aliquot of 20 mg/ml M1 or M2PYK in PBS-CM was added individually into […] of different amino acids at 5 mM in PBS-CM at pH 7.4 followed by an incubation at 37°C for 10 min. Then, the same volume of assay buffer [PBS-CM supplemented with 10 mM MgCl2, 100 mM KCl, 1 mM NADH, 40 µmol/min ml lactate dehydrogenase (LDH), as well as sub-saturating substrates PEP (1 mM) and ADP (0.8 mM)] was added into the protein solution and mixed (so the concentrations of all reagents were halved). The decrease in absorbance at 340 nm (the absorbance of NADH) was measured for 5 min at 37°C using a plate reader. PEP, ADP, LDH, NADH, FBP and all amino acids were from Sigma–Aldrich.
FBP was used as a positive control. The reaction was performed after pre-incubation in the presence of sub-saturating substrates in PBS at pH 7.4 at 37°C as described in Experimental Procedures.

M2PYK = target: T2, M2PYK (Homo sapiens, UniProt P14618); assay: Enzyme kinetics of M2PYK for PEP with saturating ADP in presence of amino acids; assay type: biochemical; settings: kinetic curves at different inhibitor concentrations
T2 construct: and N-terminal domain (blue, residues 13–43. Residues 1–12, as well as additional residues from the His6-tagged construct); made in house; host or cells: Escherichia coli BL21(DE3), pET28a
T2 sequence (P14618 whole entry, the tested form may be a part): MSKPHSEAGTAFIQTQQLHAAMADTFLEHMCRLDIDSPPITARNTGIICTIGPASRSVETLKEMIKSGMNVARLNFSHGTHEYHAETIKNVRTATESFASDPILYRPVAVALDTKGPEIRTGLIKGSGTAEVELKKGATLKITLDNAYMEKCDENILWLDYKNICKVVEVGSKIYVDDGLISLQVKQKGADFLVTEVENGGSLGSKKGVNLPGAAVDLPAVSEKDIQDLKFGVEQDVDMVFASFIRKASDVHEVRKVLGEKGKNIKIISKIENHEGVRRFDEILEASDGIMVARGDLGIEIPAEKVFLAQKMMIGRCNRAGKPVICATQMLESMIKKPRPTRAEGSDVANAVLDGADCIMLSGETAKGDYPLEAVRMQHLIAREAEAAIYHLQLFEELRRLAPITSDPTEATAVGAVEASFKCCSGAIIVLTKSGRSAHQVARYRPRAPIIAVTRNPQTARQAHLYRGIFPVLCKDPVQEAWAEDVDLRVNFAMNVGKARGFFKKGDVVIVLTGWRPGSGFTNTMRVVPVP
Experimental: For the determination of kinetics of M2PYK in the absence/presence of amino acid modulators, enzymatic activity assays were performed as follows. A 5 µl aliquot of 0.002 mg/ml M2PYK in PBS-CM was incubated with different concentrations of amino acids in PBS-CM supplemented with 1 mM dithiothreitol at 37°C at pH 7.4 for 10 min. Then, the same volume of assay buffer [PBS-CM supplemented with 10 mM MgCl2, 100 mM KCl, 1 mM NADH, 40 µmol/min ml LDH, as well as saturating ADP (4 mM) and titrated substrate PEP (0.15–10 mM)] was added. […] For these uncompetitive inhibitors the Ki values were calculated to be equal to IC50/2.
Values of the kinetic parameters (Vmax, K0.5(PEP), and nH) were determined by fitting the equation below to the data. V=Vmax×[PEP]^nH/K0.5nH+[PEP]^nH The Lineweaver–Burk plots were fit using the equation below: Y=K0.5nH+(1/x)^nH/Vmax×(1/x)^nH The Berkley Madonna software (http://www.berkeleymadonna.com/) was used to model approximate proportions of monomer and tetramer M2PYK at given total protein concentrations. The calculation was based on a simplified tetramer [T] monomer [M] equilibrium: [T]⇌[M]+[M]+[M]+[M]withKd=[M]^4/[T] […] The association rate constant was scaled to give a Kd of 0.9 µM, which was estimated from analytical gel chromatography results.
The kinetic curves are shown in Figure 4 and Supplementary Figure S4.

cell proliferation = system: cell proliferation; set-up: method as in PMID 23530218; settings: via activation or inhibition of M2PYK; cited from earlier work

T1 sequence (P14618 1-531 isoform P14618-2): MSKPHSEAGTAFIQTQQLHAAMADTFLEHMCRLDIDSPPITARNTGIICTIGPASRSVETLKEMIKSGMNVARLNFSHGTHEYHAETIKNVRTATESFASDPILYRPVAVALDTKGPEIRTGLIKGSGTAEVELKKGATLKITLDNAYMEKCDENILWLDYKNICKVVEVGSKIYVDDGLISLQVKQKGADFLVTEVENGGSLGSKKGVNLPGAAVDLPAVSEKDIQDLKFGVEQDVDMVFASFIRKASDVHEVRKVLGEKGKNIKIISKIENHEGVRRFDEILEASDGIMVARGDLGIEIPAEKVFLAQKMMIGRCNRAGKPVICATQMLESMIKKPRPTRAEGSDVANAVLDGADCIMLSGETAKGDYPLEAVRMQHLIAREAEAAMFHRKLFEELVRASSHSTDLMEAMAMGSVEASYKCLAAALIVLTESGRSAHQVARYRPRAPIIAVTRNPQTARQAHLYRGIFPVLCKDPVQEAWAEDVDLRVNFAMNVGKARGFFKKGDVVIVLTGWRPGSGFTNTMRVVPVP

SMILES: N[C@@H](Cc1ccccc1)C(=O)O [phenylalanine, L-phenylalanine]
- inhibition of M1PYK activity (M1PYK): 10%
- mode of inhibition of M2PYK (M2PYK): allosteric uncompetitive inhibitors
- effect on cell proliferation (cell proliferation): favours cell proliferation
